In one assay the test system is U-251. The assay can be described thus: Inhibition of cell proliferation of human U251 cells assessed as cell viability at 100 uM after 72 hrs by sulforhodamine B assay. In kind it is functional. To be noted: U-251, 72 h, read-out: Activity. A general note: In SRB staining, fixed cells bind dye roughly in proportion to their protein.
The test system of a further assay is C6. In words: Inhibition of cell proliferation of rat C6 cells assessed as cell viability at 100 uM after 72 hrs by sulforhodamine B assay. It is filed as functional. The settings on record: C6, 72 h, read-out: Activity.

As to `CC(C)=CCC[C@](C)(O[C@@H]1O[C@H](CO[C@@H]2O[C@H](CO)[C@@H](O)[C@H](O)[C@H]2O)[C@@H](O)[C@H](O)[C@H]1O)[C@H]1CC[C@]2(C)[C@@H]1[C@H](O)C[C@@H]1[C@@]3(C)CC[C@H](O[C@@H]4O[C@H](CO)[C@@H](O)[C@H](O)[C@H]4O[C@@H]4O[C@H](CO)[C@@H](O)[C@H](O)[C@H]4O)C(C)(C)[C@@H]3CC[C@]12C` [GINSENOSIDE RB1], the viability at 100 µM with U-251 worked out at 76.1%; in the assay with C6 it was 79%.

Consider `CC(C)=CCC[C@](C)(O)[C@H]1CC[C@]2(C)[C@@H]1[C@H](O)C[C@@H]1[C@@]3(C)CC[C@H](O[C@@H]4O[C@H](CO)[C@@H](O)[C@H](O)[C@H]4O[C@@H]4O[C@H](CO)[C@@H](O)[C@H](O)[C@H]4O)C(C)(C)[C@@H]3CC[C@]12C`, for which the viability at 100 µM in the assay on U-251 came out at 99.1%; in the assay on C6, 53.1%.

Regarding `CC1(C)CC[C@]2(C(=O)O)CC[C@]3(C)C(=CC[C@@H]4[C@@]5(C)CC[C@H](O)C(C)(C)[C@@H]5CC[C@]43C)[C@@H]2C1` [OLEANOLIC_ACID], the viability at 100 µM in the assay with U-251 is 67.8%; with C6 it was 59.2%.

In the case of `O=C(O)[C@H]1O[C@@H](Oc2cc3oc(-c4ccccc4)cc(=O)c3c(O)c2O)[C@H](O)[C@@H](O)[C@@H]1O` [BAICALIN], the figures for the viability at 100 µM in the assay with U-251 and in the assay with C6 were 91.8% and 80.4%, respectively.

Consider `CC(C)=CCC[C@](C)(O[C@@H]1O[C@H](CO)[C@@H](O)[C@H](O)[C@H]1O)[C@H]1CC[C@]2(C)[C@@H]1[C@H](O)C[C@@H]1[C@@]3(C)CC[C@H](O[C@@H]4O[C@H](CO)[C@@H](O)[C@H](O)[C@H]4O)C(C)(C)[C@@H]3CC[C@]12C` [GINSENOSIDE F2], for which the viability at 100 µM was determined as 64.6% in the assay on U-251 and 117% with C6.

On to `O=C(/C=C/c1ccc(O)c(O)c1)O[C@H]1[C@H](O)C[C@@](O)(C(=O)O)C[C@H]1O`, for which the figures for the viability at 100 µM in the assay on U-251 and with C6 were 52.8% and 133%, respectively.

Consider `CC(C)=CCC[C@](C)(O[C@@H]1O[C@H](CO[C@@H]2OC[C@@H](O)[C@H](O)[C@H]2O)[C@@H](O)[C@H](O)[C@H]1O)[C@H]1CC[C@]2(C)[C@@H]1[C@H](O)C[C@@H]1[C@@]3(C)CC[C@H](O[C@@H]4O[C@H](CO)[C@@H](O)[C@H](O)[C@H]4O[C@@H]4O[C@H](CO)[C@@H](O)[C@H](O)[C@H]4O)C(C)(C)[C@@H]3CC[C@]12C` [GINSENOSIDE RB3], for which the viability at 100 µM with U-251 was 95.1%; with C6 it was 57.8%.

In the case of `O=C(/C=C/c1ccc(O)c(O)c1)O[C@H](Cc1ccc(O)c(O)c1)C(=O)O` [ROSMARINIC ACID], the viability at 100 µM was 70.8% in the assay on U-251 and 54.5% in the assay with C6.

With `CC(C)=CCC[C@@](C)(O)[C@H]1CC[C@]2(C)[C@@H]1[C@H](O)C[C@@H]1[C@@]3(C)CC[C@H](O[C@@H]4O[C@H](CO)[C@@H](O)[C@H](O)[C@H]4O[C@@H]4O[C@H](CO)[C@@H](O)[C@H](O)[C@H]4O)C(C)(C)[C@@H]3CC[C@]12C`, the viability at 100 µM in the assay on U-251 came out at 77.5%; in the assay on C6, 97.2%.

`COc1c(O)ccc(O)c1-c1cc(=O)c2c(O)cc(O)c(OC)c2o1`: the viability at 100 µM in the assay with U-251 was found to be 87.5%; in the assay with C6, 57.7%.

Turning to `CC1(C)CC[C@]2(C(=O)O)[C@H](O)C[C@]3(C)C(=CC[C@@H]4[C@@]5(C)CC[C@H](O)C(C)(C)[C@@H]5CC[C@]43C)[C@H]2C1` [ECHINOCYSTIC ACID], the viability at 100 µM in the assay on U-251 is 33.7%; with C6, 52.3%.

Regarding `C/C=C(\C)C(=O)O[C@H]1[C@H](O)[C@]2(CO)[C@H](O)C[C@]3(C)C(=CC[C@@H]4[C@@]5(C)CC[C@H](O[C@@H]6O[C@H](C(=O)O)[C@@H](O[C@@H]7O[C@H](CO)[C@@H](O)[C@H](O)[C@H]7O)[C@H](O)[C@H]6O[C@@H]6O[C@H](CO)[C@@H](O)[C@H](O)[C@H]6O)[C@@](C)(CO)[C@@H]5CC[C@]43C)[C@@H]2CC1(C)C`, the values for the viability at 100 µM in the assay on U-251 and in the assay with C6 were 92.7% and 89.6%, respectively.

In the case of `CC(C)=CCC[C@](C)(O)[C@H]1CC[C@]2(C)[C@@H]1[C@H](O)C[C@@H]1[C@@]3(C)CC[C@H](O)C(C)(C)[C@@H]3[C@@H](O[C@@H]3O[C@H](CO)[C@@H](O)[C@H](O)[C@H]3O[C@@H]3OC[C@@H](O)[C@H](O)[C@H]3O)C[C@]12C`, the viability at 100 µM with U-251 is 108%; in the assay with C6 it was 59.3%.

With `CC(C)=CCC[C@](C)(O[C@@H]1O[C@H](CO[C@@H]2O[C@@H](CO)[C@H](O)[C@H]2O)[C@@H](O)[C@H](O)[C@H]1O)[C@H]1CC[C@]2(C)[C@@H]1[C@H](O)C[C@@H]1[C@@]3(C)CC[C@H](O[C@@H]4O[C@H](CO)[C@@H](O)[C@H](O)[C@H]4O[C@@H]4O[C@H](CO)[C@@H](O)[C@H](O)[C@H]4O)C(C)(C)[C@@H]3CC[C@]12C` [GINSENOSIDE RC], the viability at 100 µM in the assay with U-251 was determined as 87.7%; in the assay on C6, 79%.

Turning to `C/C=C/C(=O)OC[C@H]1O[C@@H](O[C@H]2[C@H](O[C@H]3CC[C@]4(C)[C@H]5C[C@@H](O)[C@@H]6[C@@H]([C@](C)(CCC=C(C)C)O[C@@H]7O[C@H](CO[C@@H]8O[C@H](CO)[C@@H](O)[C@H](O)[C@H]8O)[C@@H](O)[C@H](O)[C@H]7O)CC[C@@]6(C)[C@]5(C)CC[C@H]4C3(C)C)O[C@H](CO)[C@@H](O)[C@@H]2O)[C@H](O)[C@@H](O)[C@@H]1O`, the viability at 100 µM in the assay with U-251 came to 97.2%; with C6, 99.4%.

As for `CC(C)=CCC[C@](C)(O[C@@H]1O[C@H](CO[C@@H]2OC[C@H](O)[C@H](O)[C@H]2O)[C@@H](O)[C@H](O)[C@H]1O)[C@H]1CC[C@]2(C)[C@@H]1[C@H](O)C[C@@H]1[C@@]3(C)CC[C@H](O)C(C)(C)[C@@H]3[C@@H](O)C[C@]12C` [GINSENOSIDE F3], the viability at 100 µM in the assay with U-251 was determined as 104%; with C6, 93.6%.

`CC(C)=CC/C=C(/C)[C@H]1CC[C@]2(C)[C@@H]1[C@H](O)C[C@@H]1[C@@]3(C)CC[C@H](O)C(C)(C)[C@@H]3[C@@H](O)C[C@]12C`: the viability at 100 µM with U-251 is 92.7%; in the assay with C6 it was 75.6%.

Turning to `C[C@@H]1O[C@@H](OC[C@H]2O[C@@H](Oc3c(-c4ccc(O)c(O)c4)oc4cc(O)cc(O)c4c3=O)[C@H](O)[C@@H](O)[C@@H]2O)[C@H](O)[C@H](O)[C@H]1O` [RUTIN], the viability at 100 µM is 61.5% in the assay with U-251 and 62.1% in the assay with C6.

In the case of `CC(C)=CCC[C@](C)(O[C@@H]1O[C@H](CO)[C@@H](O)[C@H](O)[C@H]1O)[C@H]1CC[C@]2(C)[C@@H]1[C@H](O)C[C@@H]1[C@@]3(C)CC[C@H](O)C(C)(C)[C@@H]3[C@@H](O)C[C@]12C` [GINSENOSIDE F1], the viability at 100 µM with U-251 amounted to 80.9%; in the assay with C6, 92%.

On to `CC(C)=CCC[C@](C)(O)[C@H]1CC[C@]2(C)[C@@H]1[C@H](O)C[C@@H]1[C@@]3(C)CC[C@H](O)C(C)(C)[C@@H]3[C@@H](O[C@@H]3O[C@H](CO)[C@@H](O)[C@H](O)[C@H]3O[C@@H]3O[C@@H](C)[C@H](O)[C@@H](O)[C@H]3O)C[C@]12C` [GINSENOSIDE RG2], for which the viability at 100 µM in the assay on U-251 is 103%; in the assay with C6, 96.5%.

In the case of `CC(C)=CCC[C@](C)(O[C@@H]1O[C@H](CO)[C@@H](O)[C@H](O)[C@H]1O)[C@H]1CC[C@]2(C)[C@@H]1[C@H](O)C[C@@H]1[C@@]3(C)CC[C@H](O[C@@H]4O[C@H](CO)[C@@H](O)[C@H](O)[C@H]4O)C(C)(C)[C@@H]3[C@@H](O)C[C@]12C`, the figures for the viability at 100 µM in the assay with U-251 and in the assay on C6 were 92.5% and 65.6%, respectively.

In the case of `C/C=C(/C)C(=O)O[C@H]1[C@H](O)[C@]2(CO)[C@H](O)C[C@]3(C)C(=CC[C@@H]4[C@@]5(C)CC[C@H](O[C@@H]6O[C@H](C(=O)O)[C@@H](O[C@@H]7O[C@H](CO)[C@@H](O)[C@H](O)[C@H]7O)[C@H](O)[C@H]6O[C@@H]6O[C@H](CO)[C@@H](O)[C@H](O)[C@H]6O)[C@](C)(CO)[C@@H]5CC[C@]43C)[C@@H]2CC1(C)C`, the viability at 100 µM in the assay with U-251 was found to be 94.6%; in the assay with C6, 90.7%.

Turning to `CC(C)=CCC[C@](C)(O[C@@H]1O[C@H](CO)[C@@H](O)[C@H](O)[C@H]1O)[C@H]1CC[C@]2(C)[C@@H]1[C@H](O)C[C@@H]1[C@@]3(C)CC[C@H](O[C@@H]4O[C@H](CO)[C@@H](O)[C@H](O)[C@H]4O[C@@H]4O[C@H](CO)[C@@H](O)[C@H](O)[C@H]4O)C(C)(C)[C@@H]3[C@@H](O)C[C@]12C`, the viability at 100 µM worked out at 94.5% in the assay on U-251 and 97.5% in the assay on C6.

On to `CC(C)=CCC[C@](C)(O[C@@H]1O[C@H](CO[C@@H]2OC[C@H](O)[C@H](O)[C@H]2O)[C@@H](O)[C@H](O)[C@H]1O)[C@H]1CC[C@]2(C)[C@@H]1[C@H](O)C[C@@H]1[C@@]3(C)CC[C@H](O[C@@H]4O[C@H](CO)[C@@H](O)[C@H](O)[C@H]4O[C@@H]4O[C@H](CO)[C@@H](O)[C@H](O)[C@H]4O)C(C)(C)[C@@H]3CC[C@]12C` [GINSENOSIDE RB2], for which the results for the viability at 100 µM in the assay with U-251 and with C6 were 77.5% and 80.9%, respectively.

As to `CC(C)=CCC[C@@](C)(O)[C@H]1CC[C@]2(C)[C@@H]1[C@H](O)C[C@@H]1[C@@]3(C)CC[C@H](O)C(C)(C)[C@@H]3[C@@H](O[C@@H]3O[C@H](CO)[C@@H](O)[C@H](O)[C@H]3O[C@@H]3O[C@@H](C)[C@H](O)[C@@H](O)[C@H]3O)C[C@]12C`, the viability at 100 µM with U-251 amounted to 99%; with C6, 95.5%.
